# Assay results as given in ChEMBL document CHEMBL4828763, “Discovery of Potent and Selective CDK9 Degraders for Targeting Transcription Regulation in Triple-Negative Breast Cancer” (J Med Chem, 2021).
# pIC50: −log10 of the molar value. The source made the active and inactive calls. The calls are words filed in the database; no cut-off is given here.
# How the values were obtained:
# [1] = biological target: Protein cereblon/Cyclin-dependent kinase 2 (Homo sapiens) (UniProt P24941+Q96SW2); test: Protac activity at CRBN/CDK2 in human MDA-MB-231 cells assessed as induction of degradation of CDK2 at 100 to 500 nM incubated for 4 to 8 hrs by Western blot analysis; type: cell-based; details: dose 100-500 nM, time 4-8 hrs
# [2] = biological target: Protein cereblon/Eukaryotic peptide chain release factor GTP-binding subunit ERF3A (Homo sapiens) (UniProt Q96SW2+P15170); test: Protac activity at CRBN/GSPT1 in human MDA-MB-231 cells assessed as induction of degradation of GSPT1 incubated for 4 to 8 hrs by Western blot analysis; type: cell-based; details: time 4-8 hrs
# Protein cereblon/Eukaryotic peptide chain release factor GTP-binding subunit ERF3A (Homo sapiens), sequence (P15170 whole entry, looked up): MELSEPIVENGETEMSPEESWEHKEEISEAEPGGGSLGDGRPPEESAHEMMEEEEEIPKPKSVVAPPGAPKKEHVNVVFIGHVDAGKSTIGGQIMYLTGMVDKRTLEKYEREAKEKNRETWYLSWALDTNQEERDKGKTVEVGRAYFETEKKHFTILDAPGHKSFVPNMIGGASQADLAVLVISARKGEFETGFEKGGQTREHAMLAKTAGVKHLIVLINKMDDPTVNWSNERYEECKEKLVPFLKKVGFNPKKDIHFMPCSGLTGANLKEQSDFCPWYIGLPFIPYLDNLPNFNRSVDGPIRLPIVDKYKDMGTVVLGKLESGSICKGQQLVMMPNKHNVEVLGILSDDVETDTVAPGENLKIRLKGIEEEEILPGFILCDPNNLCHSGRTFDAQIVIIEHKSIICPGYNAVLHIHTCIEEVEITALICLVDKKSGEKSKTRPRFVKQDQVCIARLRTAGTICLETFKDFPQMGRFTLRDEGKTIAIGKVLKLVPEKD
# Protein cereblon/Eukaryotic peptide chain release factor GTP-binding subunit ERF3A (Homo sapiens), sequence (Q96SW2 whole entry, looked up): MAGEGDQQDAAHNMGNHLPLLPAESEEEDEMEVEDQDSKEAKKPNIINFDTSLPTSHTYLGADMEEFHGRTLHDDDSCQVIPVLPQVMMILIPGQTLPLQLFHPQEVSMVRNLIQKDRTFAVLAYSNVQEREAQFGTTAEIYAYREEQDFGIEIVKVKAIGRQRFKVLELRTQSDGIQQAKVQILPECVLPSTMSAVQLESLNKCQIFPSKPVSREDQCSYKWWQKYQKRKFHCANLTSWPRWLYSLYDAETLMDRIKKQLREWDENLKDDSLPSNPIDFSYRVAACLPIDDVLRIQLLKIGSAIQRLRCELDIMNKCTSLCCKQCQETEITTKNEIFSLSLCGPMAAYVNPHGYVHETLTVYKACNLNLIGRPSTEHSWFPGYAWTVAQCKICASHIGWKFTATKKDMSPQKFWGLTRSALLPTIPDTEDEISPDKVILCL
# Tumour [3] = test: Reduction in Ki-67 protein level in tumor of BALB/c mouse xenografted with human MDA-MB-231 cells at 2.5 mg/kg, intratumoral injection daily for 7 days by immunohistochemistry staining analysis relative to control; type: functional; details: MDA-MB-231, Neoplasm, 168 h, time 7 day
# [4] = biological target: Protein cereblon/Cyclin-dependent kinase 9 (Homo sapiens) (UniProt P50750+Q96SW2); test: Protac activity at CRBN/CDK9 in human MDA-MB-231 cells assessed as induction of degradation of CDK9 pretreated with MLN4924 at 500 nM incubated for 8 hrs by Western blot analysis; type: cell-based
# Protein cereblon/Cyclin-dependent kinase 9 (Homo sapiens), sequence (P50750 whole entry, looked up): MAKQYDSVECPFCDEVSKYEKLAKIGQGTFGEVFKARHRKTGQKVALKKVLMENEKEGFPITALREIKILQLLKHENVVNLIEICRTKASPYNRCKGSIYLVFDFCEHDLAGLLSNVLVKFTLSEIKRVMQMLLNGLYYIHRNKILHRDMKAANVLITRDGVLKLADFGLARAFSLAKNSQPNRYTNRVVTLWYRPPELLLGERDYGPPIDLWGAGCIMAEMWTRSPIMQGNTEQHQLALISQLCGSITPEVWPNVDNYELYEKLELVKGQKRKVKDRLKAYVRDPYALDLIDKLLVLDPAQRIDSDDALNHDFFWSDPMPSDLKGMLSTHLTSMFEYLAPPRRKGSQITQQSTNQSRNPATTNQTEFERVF
# Protein cereblon/Cyclin-dependent kinase 9 (Homo sapiens), sequence (Q96SW2 whole entry, looked up): as the sequence (Q96SW2 whole entry, looked up) above
# MDA-MB-231 [5] = test: Antitumor activity against human MDA-MB-231 cells xenografted in BALB/c mouse model assessed as induction of CDK9 degradation in tumor tissue at 5 mg/kg, intratumoral injection daily for 7 days by Western blot analysis relative to control; type: functional, organism-based; details: time 7.0 day
# [6] = Toxicity in BALB/c mouse xenografted with human MDA-MB-231 cells assessed as body weight loss at 2.5 mg/kg, intratumoral injection daily for 7 days; type: organism-based; details: in vivo, other, 168 h, time 7 day
# [7] = Toxicity in BALB/c mouse xenografted with human MDA-MB-231 cells assessed as body weight loss at 5 mg/kg, intratumoral injection daily for 7 days; type: organism-based; details: in vivo, other, 168 h, time 7 day
# Tumour [8] = test: Reduction in MYC protein level in tumor of BALB/c mouse xenografted with human MDA-MB-231 cells at 5 mg/kg, intratumoral injection daily for 7 days by immunohistochemistry staining analysis relative to control; type: functional; details: MDA-MB-231, Neoplasm, 168 h, time 7 day
# [9] = biological target: Protein cereblon/Cyclin-dependent kinase 1 (Homo sapiens) (UniProt P06493+Q96SW2); test: Protac activity at CRBN/CDK1 in human MDA-MB-231 cells assessed as induction of degradation of CDK1 at 100 to 500 nM incubated for 4 to 8 hrs by Western blot analysis; type: cell-based; details: dose 100-500 nM, time 4-8 hrs
# Protein cereblon/Cyclin-dependent kinase 1 (Homo sapiens), sequence (P06493 whole entry, looked up): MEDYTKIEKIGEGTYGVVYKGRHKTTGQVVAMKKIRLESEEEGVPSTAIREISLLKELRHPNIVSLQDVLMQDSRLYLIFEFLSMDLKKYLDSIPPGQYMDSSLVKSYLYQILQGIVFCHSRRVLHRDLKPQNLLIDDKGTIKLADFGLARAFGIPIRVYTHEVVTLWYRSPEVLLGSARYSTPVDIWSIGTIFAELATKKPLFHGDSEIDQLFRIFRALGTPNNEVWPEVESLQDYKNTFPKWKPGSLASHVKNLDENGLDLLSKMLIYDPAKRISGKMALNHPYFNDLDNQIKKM
# Protein cereblon/Cyclin-dependent kinase 1 (Homo sapiens), sequence (Q96SW2 whole entry, looked up): as the sequence (Q96SW2 whole entry, looked up) above
# Tumour [10] = test: Reduction in CDK9 protein level in tumor of BALB/c mouse xenografted with human MDA-MB-231 cells at 5 mg/kg, intratumoral injection daily for 7 days by immunohistochemistry staining analysis relative to control; type: functional; details: MDA-MB-231, Neoplasm, 168 h, time 7 day
# Tumour [11] = test: Effect on CDK7 protein level in tumor of BALB/c mouse xenografted with human MDA-MB-231 cells at 2.5 to 5 mg/kg, intratumoral injection daily for 7 days by Western blot analysis relative to control; type: functional, organism-based; details: Neoplasm, dose 2.5-5 mg/kg, time 7.0 day
# Tumour [12] = test: Reduction in Ki-67 protein level in tumor of BALB/c mouse xenografted with human MDA-MB-231 cells at 5 mg/kg, intratumoral injection daily for 7 days by immunohistochemistry staining analysis relative to control; type: functional; details: MDA-MB-231, Neoplasm, 168 h, time 7 day
# MDA-MB-468 = test: Growth inhibition of human MDA-MB-468 cells assessed as cell viability measured after 4 days by WST8 assay; type: functional, cell-based; details: MDA-MB-468, 96 h
# [13] = biological target: Protein cereblon/Cyclin-dependent kinase 4 (Homo sapiens) (UniProt P11802+Q96SW2); test: Protac activity at CRBN/CDK4 in human MDA-MB-231 cells assessed as induction of degradation of CDK4 at 100 to 500 nM incubated for 4 to 8 hrs by Western blot analysis; type: cell-based; details: dose 100-500 nM, time 4-8 hrs
# Protein cereblon/Cyclin-dependent kinase 4 (Homo sapiens), sequence (P11802 2-303 limits assumed): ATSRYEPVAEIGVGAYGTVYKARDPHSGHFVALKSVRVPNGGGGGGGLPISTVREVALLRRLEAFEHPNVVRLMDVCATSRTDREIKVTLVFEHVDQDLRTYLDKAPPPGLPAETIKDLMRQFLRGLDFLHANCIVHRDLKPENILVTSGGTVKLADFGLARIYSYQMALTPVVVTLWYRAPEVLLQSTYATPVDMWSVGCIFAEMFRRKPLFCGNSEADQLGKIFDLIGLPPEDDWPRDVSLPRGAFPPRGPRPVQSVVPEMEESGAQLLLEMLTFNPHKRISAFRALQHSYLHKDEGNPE
# Protein cereblon/Cyclin-dependent kinase 4 (Homo sapiens), sequence (Q96SW2 whole entry partner): as the sequence (Q96SW2 whole entry, looked up) above
# Tumour [14] = test: Reduction in CDK9 protein level in tumor of BALB/c mouse xenografted with human MDA-MB-231 cells at 2.5 mg/kg, intratumoral injection daily for 7 days by immunohistochemistry staining analysis relative to control; type: functional; details: MDA-MB-231, Neoplasm, 168 h, time 7 day
# Tumour [15] = test: Reduction in MYC protein level in tumor of BALB/c mouse xenografted with human MDA-MB-231 cells at 2.5 mg/kg, intratumoral injection daily for 7 days by immunohistochemistry staining analysis relative to control; type: functional; details: MDA-MB-231, Neoplasm, 168 h, time 7 day
# MDA-MB-231 [16] = test: Antitumor activity against human MDA-MB-231 cells xenografted in BALB/c mouse model assessed as decrease in tumor volume at 5 mg/kg, intratumoral injection daily for 7 days relative to control; type: functional; design: scale not given: the % may be the effect or the level left; details: time 7 day
# MDA-MB-231 [17] = test: Antitumor activity against human MDA-MB-231 cells xenografted in BALB/c mouse model assessed as induction of CDK9 degradation in tumor tissue at 2.5 mg/kg, intratumoral injection daily for 7 days by Western blot analysis relative to control; type: functional, organism-based; details: time 7.0 day
# [18] = biological target: Protein cereblon/Cyclin-dependent kinase 7 (Homo sapiens) (UniProt P50613+Q96SW2); test: Protac activity at CRBN/CDK7 in human MDA-MB-231 cells assessed as induction of degradation of CDK7 at 100 to 500 nM incubated for 4 to 8 hrs by Western blot analysis; type: cell-based; details: dose 100-500 nM, time 4-8 hrs
# Protein cereblon/Cyclin-dependent kinase 7 (Homo sapiens), sequence (P50613 whole entry, looked up): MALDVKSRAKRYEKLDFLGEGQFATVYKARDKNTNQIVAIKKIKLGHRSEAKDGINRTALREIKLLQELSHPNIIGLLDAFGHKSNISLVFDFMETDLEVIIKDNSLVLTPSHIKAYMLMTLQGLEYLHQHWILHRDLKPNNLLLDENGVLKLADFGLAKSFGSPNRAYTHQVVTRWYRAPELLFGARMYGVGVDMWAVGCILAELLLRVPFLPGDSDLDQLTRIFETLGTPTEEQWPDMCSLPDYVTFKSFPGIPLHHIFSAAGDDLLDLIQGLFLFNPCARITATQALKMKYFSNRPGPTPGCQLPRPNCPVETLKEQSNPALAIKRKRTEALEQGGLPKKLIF
# Protein cereblon/Cyclin-dependent kinase 7 (Homo sapiens), sequence (Q96SW2 whole entry, looked up): as the sequence (Q96SW2 whole entry, looked up) above
# Tumour [19] = test: Reduction in CDK7 protein level in tumor of BALB/c mouse xenografted with human MDA-MB-231 cells at 5 mg/kg, intratumoral injection daily for 7 days by immunohistochemistry staining analysis relative to control; type: functional; details: MDA-MB-231, Neoplasm, 168 h, time 7 day
# [20] = biological target: Protein cereblon/Cyclin-dependent kinase 5 (Homo sapiens) (UniProt Q00535+Q96SW2); test: Protac activity at CRBN/CDK5 in human MDA-MB-231 cells assessed as induction of degradation of CDK5 at 100 to 500 nM incubated for 4 to 8 hrs by Western blot analysis; type: cell-based; details: dose 100-500 nM, time 4-8 hrs
# Protein cereblon/Cyclin-dependent kinase 5 (Homo sapiens), sequence (Q00535 whole entry, looked up): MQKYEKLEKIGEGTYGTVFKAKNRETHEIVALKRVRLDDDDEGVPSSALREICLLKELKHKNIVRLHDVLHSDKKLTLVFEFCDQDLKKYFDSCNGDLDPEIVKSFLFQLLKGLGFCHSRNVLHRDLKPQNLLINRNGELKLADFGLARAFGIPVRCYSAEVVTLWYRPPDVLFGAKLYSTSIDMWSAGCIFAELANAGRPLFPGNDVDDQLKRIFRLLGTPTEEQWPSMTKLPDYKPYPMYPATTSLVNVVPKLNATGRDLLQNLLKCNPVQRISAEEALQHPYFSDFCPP
# Protein cereblon/Cyclin-dependent kinase 5 (Homo sapiens), sequence (Q96SW2 whole entry, looked up): as the sequence (Q96SW2 whole entry, looked up) above
# Tumour [21] = test: Reduction in CDK7 protein level in tumor of BALB/c mouse xenografted with human MDA-MB-231 cells at 2.5 mg/kg, intratumoral injection daily for 7 days by immunohistochemistry staining analysis relative to control; type: functional; details: MDA-MB-231, Neoplasm, 168 h, time 7 day
# Tumour [22] = test: Induction of CDK7 degradation in tumor of human MDA-MB-231 cells xenografted in BALB/c mouse model at 0.15 mM intratumoral injection measured after 16 hrs by Western blot analysis relative to control; type: functional, tissue-based; details: Neoplasm
# MDA-MB-231 [23] = test: Antitumor activity against human MDA-MB-231 cells xenografted in BALB/c mouse model assessed as decrease in tumor volume at 2.5 mg/kg, intratumoral injection daily for 7 days relative to control; type: functional; design: scale not given: the % may be the effect or the level left; details: time 7 day
# MDA-MB-231 [24] = test: Growth inhibition of human MDA-MB-231 cells assessed as cell viability measured after 4 days by WST8 assay; type: functional, cell-based; details: MDA-MB-231, 96 h
# BT-549 = test: Growth inhibition of human BT-549 cells assessed as cell viability measured after 4 days by WST8 assay; type: functional, cell-based; details: BT-549, 96 h
# Tumour [25] = test: Induction of CDK9 degradation in tumor of human MDA-MB-231 cells xenografted in BALB/c mouse model at 0.15 mM intratumoral injection measured after 16 hrs by Western blot analysis relative to control; type: functional, Neoplasm
# [26] = biological target: Protein cereblon/Cyclin-dependent kinase 6 (Homo sapiens) (UniProt Q00534+Q96SW2); test: Protac activity at CRBN/CDK6 in human MDA-MB-231 cells assessed as induction of degradation of CDK6 at 100 to 500 nM incubated for 4 to 8 hrs by Western blot analysis; type: cell-based; details: dose 100-500 nM, time 4-8 hrs
# Protein cereblon/Cyclin-dependent kinase 6 (Homo sapiens), sequence (Q00534 whole entry, looked up): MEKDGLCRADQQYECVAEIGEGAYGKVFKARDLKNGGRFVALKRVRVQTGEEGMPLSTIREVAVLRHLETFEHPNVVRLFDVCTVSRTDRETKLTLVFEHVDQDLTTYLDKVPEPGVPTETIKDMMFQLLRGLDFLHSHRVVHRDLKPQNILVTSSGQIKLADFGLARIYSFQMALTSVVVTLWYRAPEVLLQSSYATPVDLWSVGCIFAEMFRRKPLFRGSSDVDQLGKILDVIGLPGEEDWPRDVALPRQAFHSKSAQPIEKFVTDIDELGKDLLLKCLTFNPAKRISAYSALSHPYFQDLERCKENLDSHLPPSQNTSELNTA
# Protein cereblon/Cyclin-dependent kinase 6 (Homo sapiens), sequence (Q96SW2 whole entry, looked up): as the sequence (Q96SW2 whole entry, looked up) above
smiles,measurement,setting,value
CC[C@@H](CO)Nc1cc(NCc2ccc(NC(=O)N3CCN(CCCCCc4cccc5c4CN(C4CCC(=O)NC4=O)C5=O)CC3)cc2)n2ncc(C(C)C)c2n1 (stereo partly drawn),Activity,[1],inactive
same,Activity,[2],inactive
same,inhibition in vivo at 2.5 mg/kg,Tumour [3],32.8%
same,Activity,[4],Active
same,Activity,MDA-MB-231 [5],Active
same,Activity,[6],12.8%
same,Activity,[7],13.1%
same,inhibition in vivo at 5 mg/kg,Tumour [8],76.7%
same,Activity,[9],inactive
same,inhibition in vivo at 5 mg/kg,Tumour [10],90.8%
same,Activity,Tumour [11],inactive
same,inhibition in vivo at 5 mg/kg,Tumour [12],69.7%
same,pIC50,MDA-MB-468,4.82
same,Activity,[13],inactive
same,inhibition in vivo at 2.5 mg/kg,Tumour [14],62.3%
same,inhibition in vivo at 2.5 mg/kg,Tumour [15],41%
same,Activity,MDA-MB-231 [16],50%
same,Activity,MDA-MB-231 [17],Active
same,Activity,[18],inactive
same,inhibition in vivo at 5 mg/kg,Tumour [19],12.4%
same,Activity,[20],inactive
same,inhibition in vivo at 2.5 mg/kg,Tumour [21],4%
same,Activity,Tumour [22],inactive
same,Activity,MDA-MB-231 [23],50%
same,pIC50,MDA-MB-231 [24],5.41
same,pIC50,BT-549,4.87
same,Activity,Tumour [25],54%
same,Activity,[26],inactive
